Data taken from patent US20180021315A1, “METHODS OF TREATING HEARING DISORDERS” (Wayne State University, priority 2016, published 2018).
“Also recorded” adds a separate entry of the source. Where two headings read alike, the source gives them in different places.

Experiments:
blast-exposed rats [1] = test: Blast-induced tinnitus, gap ratio, etanercept; format: in vivo, rat; settings: for gap ratio values (gap/startle-only response), therapeutic effect on tinnitus: FIG. 29
Method: Each of the rats was subjected to blast exposure in the left ear using a shock tube (ORA Inc.) located at the Wayne State University Bioengineering Center. The blast exposure of each rat was performed under anesthesia with a mixture of air (1 liter/min) and isoflurane (5% v/v). The rat was placed on supportive netting with a metal surround and secured on a pole with its head facing the oncoming shockwave. During blast exposure, the rat's right ear was occluded with a silicone earplug (Mack's; McKeon Products, Warren, Mich.), followed by application of mineral oil to seal any remaining openings. The average energy under 10 kHz measured at 22 psi was equivalent to 150 kPa or 197.5 dB SPL. After blast exposure, each rat was transferred to a polycarbonate cage.
Thirty two rats from Example 10 were used. Behavioral tinnitus testing, including gap detection and PPI testing, was conducted with Hamilton-Kinder startle-reflex hardware and software. During behavioral testing, each rat was placed in an individual noise-attenuation chamber to perform gap and PPI testing. In the gap procedure, each rat was presented with a constant 60-dB SPL background noise composed of 2,000 Hz bandpass signals at 6-8, 10-12, 14-16, 18-20, or 26-28 kHz or broadband noise (BBN; 2-30 kHz). A 115 dB SPL, 50 ms noise-burst was used as the startle stimulus to induce the acoustic startle reflex. The background noise session contained two conditions, one condition was the startle only condition in which rat was presented with the startle stimulus alone, and the other condition was the gap condition in which a rat was presented with a startle stimulus preceded by a silent gap embedded within the background noise. Silent gaps were 40 ms in duration with a lead interval of 90 ms to the startle stimulus. The startle reflex of rats was measured in response to 3 conditions: 1) background noise alone, 2) startle only, and 3) gap. […] The startle amplitude of rats in response to the two conditions was measured: the startle-only condition and a prepulse followed by the startle stimulus. […]

[2] = 5 mg/kg, I.P. route; cited from earlier work
blast-exposed rats [3] = test: Blast-induced tinnitus, gap detection, thalidomide treatment; format: in vivo, rat; settings: injected daily for 5 days, FIG. 8C
Method: A rat model of blast-induced tinnitus was developed to investigate the role of TNF-α in a traumatic brain injury (TBI) blast exposure induced tinnitus. Rats were anesthetized with isoflurane (0.75-1% in a 2:1 N2O:O2 gas mixture), placed on supportive netting, and secured with a locking device. All animals had one ear occluded with an earplug before they were blast-exposed in a shock-tube assembly (ORA, Inc.).
Behavioral evidence of blast-induced tinnitus was tested using a gap detection test as described above. […] Blast-exposed rats also spent less time in, and made fewer entries into, the open arms of an elevated plus maze (FIG. 7C), showing a higher anxiety level. The results are consistent with findings in blast-exposed humans and indicate that the blast model is suitable for studying mechanisms and treatment of blast-induced tinnitus and anxiety.

C57BL/6 mice = test: Noise-induced tinnitus (NIHL), gap detection task, thalidomide treatment; format: in vivo, mouse; settings: 100 mg/kg IP daily for three days after noise exposure, FIG. 9
Method: All experimental procedures were reviewed and approved by UC Berkeley Animal Care and Use Committee. TNF-α knockout (KO) mice and corresponding C75Bl/6 wild-type (WT) mice were originally purchased from the Jackson Laboratory and were bred in a UC Berkeley animal facility. Animals were anesthetized with ketamine (100 mg/kg, IP) and xylazine (10 mg/kg, IP) and maintained at 36.5° C. with a homeothermic heating pad (Harvard Apparatus). Unilateral noise-induced hearing loss (NIHL) experiments were performed in a sound attenuation chamber by playing a continuous pure tone of 8 kHz at 112 dB SPL through a calibrated custom-made piezo earphone speaker to the left ear of the mouse for 2 hours, while the right ear was protected with sound attenuating clay. The sound level was calibrated with a Bruel and Kjaer 4135 condenser microphone (Nærum, Denmark) before and after the NIHL.
Tinnitus was assessed using the gap detection paradigm.
Eight C57BL/6 mice were tested with the gap detection task, described above, before and after undergoing NIHL. […] Afterward, animals received daily injection of 100 mg/kg (IP) thalidomide for three days and were tested for tinnitus.

[4] = tested on: wildtype and TNF-α KO mice
Method: Tinnitus was assessed using the gap detection paradigm. The gap detection task measures the acoustic startle response elicited by a brief white noise pulse and its suppression by a preceding silent gap embedded in a background sound. […] Mice were placed in a small box, which rested atop a piezoelectric sensor within a sound attenuation chamber. Sounds were played through an open field speaker (FOSTEX FT17H) fixed above the small box. Each trial began with a carrier pure tone (frequency pseudo-randomly selected from 5, 7, 10, 14, 20, 28, or 45 kHz, all at 75 dB SPL), played for 10-20 s. In uncued trials, the carrier tone was followed by a startle stimulus—a 50 ms white noise burst at 102 dB SPL. In cued trials, the startle stimulus was preceded by a 50 ms silence, 100 ms prior to its onset. In each testing session, the animal performed a total of 500 trials (50% cued and 50% uncued). After each session, the startle response ratio was calculated, which is defined as the average startle amplitude to the cued trials divided by the average amplitude of the uncued trials. The startle response ratio signifies a silent-gap induced reduction of the startle response. For example, a startle response ratio of 0.6 indicates a 40% reduction of the startle amplitude for the cued trials.

WT and KO mice = settings: systemic salicylate injection, FIGS. 5C-5D
Method: To assess an animal's ability to perform an auditory task, separate from its ability to detect a silent gap, the pre-pulse inhibition (PPI) task was administered to a subset of the mice before and after NIHL. The physical setup for the PPI task was identical to that of the gap detection. However, the trial structure differed in that carrier tone was absent and a white noise burst was cued by a 50-ms pure tone pulse (frequency pseudo-randomly selected from 5, 7, 10, 14, 20, 28, or 45 kHz, all at 75 dB SPL). In short, the PPI task tests an animal's ability to detect a pure tone pulse in silence, while the gap detection task measures an animal's ability to detect a silent gap in a continuous pure tone.

TNF-α = settings: has been shown; cited from earlier work

Which results are given for etanercept?
gap ratio values (gap/startle-only response), therapeutic effect on tinnitus (blast-exposed rats [1]; 5 mg/kg i.p. daily for 5 days from 1 day after blast, low frequencies and 28 kHz, two-week and three-week timepoints): significant therapeutic effect on tinnitus; gap ratio values (gap/startle-only response), therapeutic effect on tinnitus (blast-exposed rats [1]; 5 mg/kg i.p. daily for 5 days, one-day and one-week timepoints): less pronounced; onset of therapeutic effect relative to 3,6′-dithiothalidomide (blast-exposed rats [1]; compare FIG. 29 with FIG. 15A): delayed therapeutic effect; effect on TBI [2]: attenuates TBI

For `O=C1CCC(N2C(=O)c3ccccc3C2=O)C(=O)N1` (stereo not shown) [thalidomide], which “blast-induced tinnitus (gap detection)” value (blast-exposed rats [3]) is on record?
The value was “Significant suppression of tinnitus; also recorded: significantly suppressed”.

And the “gap detection performance after NIHL” value (C57BL/6 mice)?
The value was “dramatically improved gap detection performance over a wide frequency range, completely reversing the impairment”.

For `O=C(O)c1ccccc1O` [salicylate], which “behavioral manifestation of tinnitus (gap detection)” value ([4]; TNF-α KO mice, same dose 300 mg/kg, FIG. 5B) is on record?
Its value is “did not show tinnitus”.

What about the “behavioral manifestation of tinnitus (gap detection)” value ([4]; wildtype mice, systemic injection 300 mg/kg, 30 min later, FIG. 5A) of the same molecule?
Its value is “resulted in robust behavioral manifestation of tinnitus”.

What about the PPI performance (WT and KO mice) of the same molecule?
Its PPI performance is “affected PPI performance in WT but not KO mice”.

What about the “TNF-α expression in the inferior colliculus” value (TNF-α) of the same molecule?
Its value is “increase TNF-α expression in the inferior colliculus”.
